Measurements taken from PubChem BioAssay (NCI).
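Briefly, cells in 96-well plates were exposed to five compound concentrations for 48 h, and endpoints were estimated by linear interpolation. TGI: concentration producing complete growth inhibition.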

Tests used:
Assay in all cases: NCI anticancer screen, dose series, 48 h
[1] = tested on: SK-MEL-2 melanoma
[2] = tested on: OVCAR-3 ovarian
[3] = tested on: DU-145 prostate
[4] = tested on: HL-60(TB) leukemia
[5] = tested on: SK-OV-3 ovarian
[6] = tested on: EKVX NSCLC
[7] = tested on: T-47D breast
[8] = tested on: HT29 colon
[9] = tested on: MALME-3M melanoma
[10] = tested on: NCI/ADR-RES ovarian
[11] = tested on: SNB-19 CNS
[12] = tested on: U251 CNS
[13] = tested on: LOX IMVI melanoma
[14] = tested on: K-562 leukemia
[15] = tested on: UO-31 renal
[16] = tested on: MCF7 breast
[17] = tested on: SK-MEL-28 melanoma
[18] = tested on: KM12 colon
[19] = tested on: COLO 205 colon
[20] = tested on: HCC-2998 colon
[21] = tested on: UACC-257 melanoma
[22] = tested on: BT-549 breast
[23] = tested on: NCI-H23 lung
[24] = tested on: RPMI-8226 leukemia
[25] = tested on: NCI-H522 lung
[26] = tested on: PC-3 prostate
[27] = tested on: HOP-92 NSCLC
[28] = tested on: OVCAR-5 ovarian
[29] = tested on: HOP-62 NSCLC
[30] = tested on: MOLT-4 leukemia
[31] = tested on: SK-MEL-5 melanoma
[32] = tested on: NCI-H460 lung
[33] = tested on: OVCAR-8 ovarian
[34] = tested on: UACC-62 melanoma
[35] = tested on: MDA-MB-435
[36] = tested on: SN12C renal
[37] = tested on: 786-0 renal
[38] = tested on: RXF 393 renal
[39] = tested on: HS 578T breast
[40] = tested on: A498 renal
[41] = tested on: MDA-N
[42] = tested on: HCT-116 colon
[43] = tested on: SF-539 CNS
[44] = tested on: CCRF-CEM leukemia
[45] = tested on: ACHN renal
[46] = tested on: SW-620 colon
[47] = tested on: MDA-MB-231 breast
[48] = tested on: OVCAR-4 ovarian
[49] = tested on: SNB-75 CNS
[50] = tested on: SR leukemia
[51] = tested on: HCT-15 colon
[52] = tested on: A549 NSCLC
[53] = tested on: SF-268 CNS
[54] = tested on: SF-295 CNS
[55] = tested on: TK-10 renal
[56] = tested on: NCI-H226 lung
[57] = tested on: M14 melanoma
[58] = tested on: IGROV1 ovarian

Question: Which TGI [1] does the source give for `COC(=O)C1C(O)C(C)C(O)C(C)(O)C=C(C)C2=C3C(=C(C)C(=O)c4c(O)c(c(C)c(OC(C)=O)c43)NC(=O)C(C)=C/C=C\C(C)(O)C(O)C(C)C1O)OCO2` (configuration not stated) here?
Answer: Its TGI is > 100 µM.

Question: And the TGI [2]?
Answer: Its TGI is 57 µM.

Question: What about the TGI [3] of the same molecule?
Answer: Its TGI is > 100 µM.

Question: And the TGI [4]?
Answer: The TGI was > 100 µM.

Question: What about the TGI [5] of the same molecule?
Answer: Its TGI is > 100 µM.

Question: And the TGI [6]?
Answer: The TGI was > 100 µM.

Question: What about the TGI [7] of the same molecule?
Answer: Its TGI is > 100 µM.

Question: And the TGI [8]?
Answer: Its TGI is > 100 µM.

Question: And the TGI [9]?
Answer: Its TGI is 74.2 µM.

Question: And the TGI [10]?
Answer: Its TGI is > 100 µM.

Question: What about the TGI [11] of the same molecule?
Answer: Its TGI is > 100 µM.

Question: What about the TGI [12] of the same molecule?
Answer: The TGI was > 100 µM.

Question: What about the TGI [13] of the same molecule?
Answer: Its TGI is > 100 µM.

Question: And the TGI [14]?
Answer: The TGI was > 100 µM.

Question: And the TGI [15]?
Answer: Its TGI is > 100 µM.

Question: And the TGI [16]?
Answer: The TGI was > 100 µM.

Question: What about the TGI [17] of the same molecule?
Answer: Its TGI is > 100 µM.

Question: And the TGI [18]?
Answer: Its TGI is > 100 µM.

Question: And the TGI [19]?
Answer: The TGI was 69.7 µM.

Question: And the TGI [20]?
Answer: The TGI was > 100 µM.

Question: What about the TGI [21] of the same molecule?
Answer: The TGI was 78 µM.

Question: And the TGI [22]?
Answer: Its TGI is > 100 µM.

Question: What about the TGI [23] of the same molecule?
Answer: The TGI was > 100 µM.

Question: And the TGI [24]?
Answer: The TGI was > 100 µM.

Question: And the TGI [25]?
Answer: The TGI was > 100 µM.

Question: And the TGI [26]?
Answer: Its TGI is > 100 µM.

Question: What about the TGI [27] of the same molecule?
Answer: Its TGI is > 100 µM.

Question: And the TGI [28]?
Answer: The TGI was > 100 µM.

Question: And the TGI [29]?
Answer: Its TGI is > 100 µM.

Question: And the TGI [30]?
Answer: Its TGI is > 100 µM.

Question: And the TGI [31]?
Answer: Its TGI is 47.7 µM.

Question: What about the TGI [32] of the same molecule?
Answer: Its TGI is > 100 µM.

Question: And the TGI [33]?
Answer: The TGI was > 100 µM.

Question: And the TGI [34]?
Answer: The TGI was > 100 µM.

Question: What about the TGI [35] of the same molecule?
Answer: The TGI was > 100 µM.

Question: And the TGI [36]?
Answer: The TGI was > 100 µM.

Question: And the TGI [37]?
Answer: Its TGI is > 100 µM.

Question: And the TGI [38]?
Answer: The TGI was > 100 µM.

Question: What about the TGI [39] of the same molecule?
Answer: Its TGI is > 100 µM.

Question: And the TGI [40]?
Answer: The TGI was > 100 µM.

Question: And the TGI [41]?
Answer: Its TGI is > 100 µM.

Question: What about the TGI [42] of the same molecule?
Answer: The TGI was > 100 µM.

Question: What about the TGI [43] of the same molecule?
Answer: Its TGI is > 100 µM.

Question: And the TGI [44]?
Answer: Its TGI is > 100 µM.

Question: What about the TGI [45] of the same molecule?
Answer: Its TGI is > 100 µM.

Question: What about the TGI [46] of the same molecule?
Answer: Its TGI is > 100 µM.

Question: And the TGI [47]?
Answer: The TGI was > 100 µM.

Question: And the TGI [48]?
Answer: The TGI was > 100 µM.

Question: And the TGI [49]?
Answer: The TGI was > 100 µM.

Question: What about the TGI [50] of the same molecule?
Answer: The TGI was > 100 µM.

Question: And the TGI [51]?
Answer: Its TGI is > 100 µM.

Question: What about the TGI [52] of the same molecule?
Answer: Its TGI is > 100 µM.

Question: And the TGI [53]?
Answer: Its TGI is > 100 µM.

Question: What about the TGI [54] of the same molecule?
Answer: Its TGI is > 100 µM.

Question: And the TGI [55]?
Answer: The TGI was > 100 µM.

Question: What about the TGI [56] of the same molecule?
Answer: Its TGI is > 100 µM.

Question: What about the TGI [57] of the same molecule?
Answer: The TGI was > 100 µM.

Question: What about the TGI [58] of the same molecule?
Answer: The TGI was > 100 µM.

Question: `CN(C)C=Nc1ccc2c3c(cccc13)-c1ccccc1-2` was tested. Which TGI [1] did it give?
Answer: The TGI was 31.1 µM.

Question: And the TGI [2]?
Answer: Its TGI is 28.9 µM.

Question: What about the TGI [3] of the same molecule?
Answer: The TGI was 25.7 µM.

Question: And the TGI [4]?
Answer: The TGI was 23.2 µM.

Question: What about the TGI [5] of the same molecule?
Answer: The TGI was 26.5 µM.

Question: And the TGI [6]?
Answer: The TGI was 22.4 µM.

Question: What about the TGI [7] of the same molecule?
Answer: Its TGI is 31.3 µM.

Question: What about the TGI [8] of the same molecule?
Answer: The TGI was 21.6 µM.

Question: What about the TGI [9] of the same molecule?
Answer: The TGI was 34.6 µM.

Question: What about the TGI [10] of the same molecule?
Answer: Its TGI is 31.4 µM.

Question: What about the TGI [11] of the same molecule?
Answer: Its TGI is 27.4 µM.

Question: What about the TGI [12] of the same molecule?
Answer: The TGI was 26.2 µM.

Question: And the TGI [13]?
Answer: Its TGI is 28.3 µM.

Question: What about the TGI [14] of the same molecule?
Answer: Its TGI is 22.1 µM.

Question: And the TGI [15]?
Answer: The TGI was 19.6 µM.

Question: And the TGI [16]?
Answer: The TGI was 30.7 µM.

Question: What about the TGI [17] of the same molecule?
Answer: Its TGI is 31.9 µM.

Question: And the TGI [19]?
Answer: Its TGI is 30.9 µM.

Question: And the TGI [21]?
Answer: The TGI was 31.9 µM.

Question: And the TGI [22]?
Answer: Its TGI is 32 µM.

Question: And the TGI [23]?
Answer: The TGI was 32.9 µM.

Question: And the TGI [24]?
Answer: Its TGI is 38.9 µM.

Question: And the TGI [25]?
Answer: Its TGI is 18.8 µM.

Question: What about the TGI [26] of the same molecule?
Answer: The TGI was 26.3 µM.

Question: What about the TGI [27] of the same molecule?
Answer: Its TGI is 24.9 µM.

Question: What about the TGI [28] of the same molecule?
Answer: Its TGI is 23.1 µM.

Question: And the TGI [29]?
Answer: The TGI was 29.5 µM.

Question: What about the TGI [30] of the same molecule?
Answer: The TGI was 24.8 µM.

Question: What about the TGI [31] of the same molecule?
Answer: Its TGI is 28.1 µM.

Question: And the TGI [33]?
Answer: Its TGI is 29.8 µM.

Question: And the TGI [34]?
Answer: The TGI was 38.8 µM.

Question: And the TGI [35]?
Answer: Its TGI is 28.3 µM.

Question: And the TGI [36]?
Answer: The TGI was 25.1 µM.

Question: And the TGI [37]?
Answer: The TGI was 26 µM.

Question: And the TGI [38]?
Answer: The TGI was 21 µM.

Question: And the TGI [39]?
Answer: The TGI was 24.9 µM.

Question: And the TGI [40]?
Answer: The TGI was 21.7 µM.

Question: And the TGI [41]?
Answer: Its TGI is 27.6 µM.

Question: And the TGI [42]?
Answer: The TGI was 28.7 µM.

Question: What about the TGI [43] of the same molecule?
Answer: Its TGI is 24.5 µM.

Question: What about the TGI [44] of the same molecule?
Answer: The TGI was 17.2 µM.

Question: What about the TGI [45] of the same molecule?
Answer: Its TGI is 31.6 µM.

Question: What about the TGI [47] of the same molecule?
Answer: The TGI was 28.2 µM.

Question: What about the TGI [48] of the same molecule?
Answer: The TGI was 31.6 µM.

Question: And the TGI [49]?
Answer: Its TGI is 28.9 µM.

Question: What about the TGI [50] of the same molecule?
Answer: The TGI was 26.3 µM.

Question: And the TGI [51]?
Answer: The TGI was 24.1 µM.

Question: What about the TGI [52] of the same molecule?
Answer: The TGI was 23.7 µM.

Question: And the TGI [53]?
Answer: The TGI was 26.8 µM.

Question: And the TGI [54]?
Answer: The TGI was 27.9 µM.

Question: And the TGI [55]?
Answer: The TGI was 26.7 µM.

Question: What about the TGI [56] of the same molecule?
Answer: Its TGI is 22.8 µM.

Question: And the TGI [57]?
Answer: Its TGI is 22.1 µM.

Question: And the TGI [58]?
Answer: The TGI was 28.8 µM.
